Target: human NAMPT (Homo sapiens (Human), UniProt P43490)
Test: NMN fluorescence biochemical assay (human recombinant NAMPT enzyme assay)
How it was run: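 Activation of recombinant human NAMPT (6 nM) was tested with 2.5 mM ATP, 20 μM PRPP and 150 μM nicotinamide in 50 mM HEPES pH 7.2 for 60 min at ambient temperature. NMN was derivatized with acetophenone/KOH/formic acid and read by fluorescence (355/460 nm) after 40 min.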

Chain of human NAMPT (P43490 whole entry): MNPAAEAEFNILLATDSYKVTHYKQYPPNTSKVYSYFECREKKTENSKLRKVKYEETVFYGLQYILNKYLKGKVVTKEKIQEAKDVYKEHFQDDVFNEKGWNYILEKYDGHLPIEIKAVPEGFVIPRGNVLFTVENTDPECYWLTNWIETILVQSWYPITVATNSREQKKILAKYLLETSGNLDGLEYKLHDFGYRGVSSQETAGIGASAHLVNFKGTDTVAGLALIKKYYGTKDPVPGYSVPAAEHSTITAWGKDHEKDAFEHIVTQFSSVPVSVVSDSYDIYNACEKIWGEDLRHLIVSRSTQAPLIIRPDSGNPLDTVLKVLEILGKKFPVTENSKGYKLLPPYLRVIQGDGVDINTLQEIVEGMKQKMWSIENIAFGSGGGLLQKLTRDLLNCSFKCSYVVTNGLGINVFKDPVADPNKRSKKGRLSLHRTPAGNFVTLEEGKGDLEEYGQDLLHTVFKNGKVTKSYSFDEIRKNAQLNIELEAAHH

Compound	AC1.4 Human	EC50
Cc1ocnc1C(=O)N(C)Cc1ccc(NC(=O)OCc2ccc(Cl)cc2)cc1 [Compound 340, (4-chlorophenyl)methyl N-(4-{[N-methyl-1-(5-methyl-1,3-oxazol-4-yl)formamido]methyl}phenyl)carbamate]	10.65 µM	45.6 µM
O=C(Nc1ccc(Cc2ccncc2)cc1)OCc1ccc(Cl)cc1 [Compound 216, 4-chlorobenzyl (4-(pyridin-4-ylmethyl)phenyl)carbamate]	1.98 µM	5.81 µM
CC(=O)N1CCC(Cc2ccc(NC(=O)OCc3cnco3)cc2)CC1 [Compound 31, oxazol-5-ylmethyl (4-((1-acetylpiperidin-4-yl)methyl)phenyl)carbamate]	0.37 µM	21.7 µM
COCCN1CCC(c2ccc(NC(=O)OCc3cnco3)cc2)CC1 [Compound 348, 1,3-oxazol-5-ylmethyl N-{4-[1-(2-methoxyethyl)piperidin-4-yl]phenyl}carbamate]	14.47 µM	35.9 µM
Cc1nn(C)c(C(=O)N[C@@H](C)c2ccc(NC(=O)OCc3ccc(Cl)cc3)cc2)c1F [Compound 141, (4-chlorophenyl)methyl N-{4-[(1S)-1-[(4-fluoro-2,5-dimethylpyrazol-3-yl)formamido]ethyl]phenyl}carbamate]	1.17 µM	2.24 µM
O=C(Nc1ccc(C2CCN(C3COC3)CC2)cc1)OCc1ccc(Cl)cc1 [Compound 198, (4-chlorophenyl)methyl N-{4-[1-(oxetan-3-yl)piperidin-4-yl]phenyl}carbamate]	1.76 µM	8.59 µM
O=C(Nc1ccc(CC(=O)N2CCC[C@H](O)C2)cc1)OCc1ccc(Cl)cc1 [Compound 171, 4-chlorobenzyl (S)-(4-(2-(3-hydroxypiperidin-1-yl)-2-oxoethyl)phenyl)carbamate]	1.43 µM	9.75 µM
Cc1coc(C(=O)N(C)Cc2ccc(NC(=O)OCc3ccc(Cl)cc3)cc2)n1 [Compound 155, (4-chlorophenyl)methyl N-(4-{[N-methyl-1-(4-methyl-1,3-oxazol-2-yl)formamido]methyl}phenyl)carbamate]	1.31 µM	5.8 µM
CN(C)C(=O)N1CCC(Cc2ccc(NC(=O)OCc3ccc(Cl)cc3)cc2)CC1 [Compound 58, 4-chlorobenzyl (4-((1-(dimethylcarbamoyl)piperidin-4-yl)methyl)phenyl)carbamate]	0.55 µM	1.73 µM
Cn1nccc1C(=O)NCc1ccc(NC(=O)OCc2ccc(Cl)cc2)cc1 [Compound 205, (4-chlorophenyl)methyl N-(4-{[(2-methylpyrazol-3-yl)formamido]methyl}phenyl)carbamate]	1.84 µM	10.1 µM
O=C(Nc1ccc(CN2CCC[C@@H]2c2cccnc2)cc1)OCc1cnco1 [Compound 6, oxazol-5-ylmethyl (R)-(4-((2-(pyridin-3-yl)pyrrolidin-1-yl)methyl)phenyl)carbamate]	0.07 µM	0.55 µM
O=C(Nc1ccc(CNC(=O)c2ccccn2)cc1)OCc1ccc(Cl)cc1 [Compound 272, (4-chlorophenyl)methyl N-{4-[(pyridin-2-ylformamido)methyl]phenyl}carbamate]	3.18 µM	10.9 µM
Cc1nc(C)c(C(=O)N[C@@H](C)c2ccc(NC(=O)OCc3ccc(Cl)cc3)cc2)o1 [Compound 125, 4-chlorobenzyl (S)-(4-(1-(2,4-dimethyloxazole-5-carboxamido)ethyl)phenyl)carbamate]	0.98 µM	6.02 µM
Cc1nn(C)c(C(=O)NCc2ccc(NC(=O)OCc3ccc(Cl)cc3)cc2)c1C [Compound 19, (4-chlorophenyl)methyl N-(4-{[(2,4,5-trimethylpyrazol-3-yl)formamido]methyl}phenyl)carbamate]	0.26 µM	0.59 µM
CS(=O)(=O)N1CC2CCC(C1)C2Cc1ccc(NC(=O)OCc2cnco2)cc1 (stereo not shown) [Compound 420, oxazol-5-ylmethyl (4-((3-(methylsulfonyl)-3-azabicyclo[3.2.1]octan-8-yl)methyl)phenyl)carbamate]	0.12 µM	6.55 µM
COC1CCN(C(=O)NCc2ccc(NC(=O)OCc3ccc(Cl)cc3)cc2)CC1 [Compound 184, (4-chlorophenyl)methyl N-{4-[(4-methoxypiperidine-1-carbonylamino)methyl]phenyl}carbamate]	1.58 µM	14.9 µM
COc1nc(C)ccc1C(=O)N[C@@H](C)c1ccc(NC(=O)OCc2ccc(Cl)cc2)cc1 [Compound 213, (4-chlorophenyl)methyl N-{4-[(1S)-1-[(2-methoxy-6-methylpyridin-3-yl)formamido]ethyl]phenyl}carbamate]	1.95 µM	2.92 µM
O=C(Nc1ccc(CC2CCN(C(=O)N3CC(F)(F)C3)CC2)cc1)OCc1cnco1 [Compound 463, oxazol-5-ylmethyl (4-((1-(3,3-difluoroazetidine-1-carbonyl)piperidin-4-yl)methyl)phenyl)carbamate]	0.42 µM	43.6 µM

Compound	AC1.4 Human	EC50
O=C(Nc1ccc(CC2CCN(S(=O)(=O)C3CC3)CC2)cc1)OCc1cnco1 [Compound 460, oxazol-5-ylmethyl (4-((1-(cyclopropylsulfonyl)piperidin-4-yl)methyl)phenyl)carbamate]	0.24 µM	12.2 µM
C[C@H](NC(=O)c1cnco1)c1ccc(NC(=O)OCc2ccc(Cl)cc2)cc1 [Compound 246, 4-chlorobenzyl (S)-(4-(1-(oxazole-5-carboxamido)ethyl)phenyl)carbamate]	2.43 µM	6.14 µM
CO[C@@H]1CCCN(C(=O)Cc2ccc(NC(=O)OCc3ccc(Cl)cc3)cc2)C1 [Compound 229, (4-chlorophenyl)methyl N-(4-{2-[(3R)-3-methoxypiperidin-1-yl]-2-oxoethyl}phenyl)carbamate]	2.13 µM	12.8 µM
CS(=O)(=O)N1CC2(CC(Cc3ccc(NC(=O)OCc4cnco4)cc3F)C2)C1 [Compound 404, oxazol-5-ylmethyl (3-fluoro-4-((2-(methylsulfonyl)-2-azaspiro[3.3]heptan-6-yl)methyl)phenyl)carbamate]	0.10 µM	14.3 µM
CC(C)C(=O)N1CC2(CC(Cc3ccc(NC(=O)OCc4cnco4)cc3F)C2)C1 [Compound 403, oxazol-5-ylmethyl (3-fluoro-4-((2-isobutyryl-2-azaspiro[3.3]heptan-6-yl)methyl)phenyl)carbamate]	0.15 µM	7.47 µM
O=C(Nc1ccc(CC2CC3CCC(C2)N3S(=O)(=O)N2CCC2)cc1)OCc1cnco1 (stereo not shown) [Compound 393, oxazol-5-ylmethyl (4-((8-(azetidin-1-ylsulfonyl)-8-azabicyclo[3.2.1]octan-3-yl)methyl)phenyl)carbamate]	0.13 µM	3.84 µM
O=C(Nc1ccc(Cc2ccns2)cc1)OCc1ccc(Cl)cc1 [Compound 350, 4-chlorobenzyl (4-(isothiazol-5-ylmethyl)phenyl)carbamate]	20.27 µM	44.4 µM
COc1ccc(COC(=O)Nc2ccc(CN3CCC[C@@H]3c3cccnc3)cc2)cc1 [Compound 1, (4-methoxyphenyl)methyl N-(4-{[(2R)-2-(pyridin-3-yl)pyrrolidin-1-yl]methyl}phenyl)carbamate]	0.03 µM	0.44 µM
O=C(Nc1ccc(CN2CCOCC2=O)cc1)OCc1ccc(Cl)cc1 [Compound 86, (4-chlorophenyl)methyl N-{4-[(3-oxomorpholin-4-yl)methyl]phenyl}carbamate]	0.68 µM	6.21 µM
Cc1nn(C)c(C(=O)NCc2ccc(NC(=O)OCc3ccc(Cl)cc3)cc2)c1F [Compound 203, (4-chlorophenyl)methyl N-(4-{[(4-fluoro-2,5-dimethylpyrazol-3-yl)formamido]methyl}phenyl)carbamate]	1.82 µM	7.14 µM
CC(C)C(=O)N1C2CCC1CC(Cc1ccc(NC(=O)OCc3cnco3)cc1)C2 (stereo not shown) [Compound 409, oxazol-5-ylmethyl (4-((8-isobutyryl-8-azabicyclo[3.2.1]octan-3-yl)methyl)phenyl)carbamate]	0.20 µM	26.8 µM
COc1ccc(COC(=O)Nc2ccc(CNC(=O)c3ccc(C)nc3)cc2)cc1 [Compound 53, (4-methoxyphenyl)methyl N-(4-{[(6-methylpyridin-3-yl)formamido]methyl}phenyl)carbamate]	0.51 µM	5.89 µM
C[C@H](NC(=O)C1CCOCC1)c1ccc(NC(=O)OCc2ccc(Cl)cc2)cc1 [Compound 117, 4-chlorobenzyl (S)-(4-(1-(tetrahydro-2H-pyran-4-carboxamido)ethyl)phenyl)carbamate]	0.95 µM	8.14 µM
CS(=O)(=O)N1C2CCC1CC(Cc1ccc(NC(=O)OCc3cnco3)cc1)C2 (stereo not shown) [Compound 406, oxazol-5-ylmethyl (4-((8-(methylsulfonyl)-8-azabicyclo[3.2.1]octan-3-yl)methyl)phenyl)carbamate]	0.13 µM	6.01 µM
Cn1cc(C(=O)NCc2ccc(NC(=O)OCc3ccc(Cl)cc3)cc2)cn1 [Compound 193, (4-chlorophenyl)methyl N-(4-{[(1-methylpyrazol-4-yl)formamido]methyl}phenyl)carbamate]	1.71 µM	12.7 µM
O=C(Nc1ccc(CC2CC3CCC(C2)N3C(=O)N2CCOCC2)cc1)OCc1cnco1 (stereo not shown) [Compound 389, oxazol-5-ylmethyl (4-((8-(morpholine-4-carbonyl)-8-azabicyclo[3.2.1]octan-3-yl)methyl)phenyl)carbamate]	0.09 µM	3.75 µM
CC(=O)N1CCC(CCc2ccc(NC(=O)OCc3cnco3)cc2)CC1 [Compound 26, oxazol-5-ylmethyl (4-(2-(1-acetylpiperidin-4-yl)ethyl)phenyl)carbamate]	0.35 µM	27.5 µM

Source: patent US20240279215A1 (Cytokinetics, Incorporated, priority 2022, published 2024)
